Results filed as inconclusive are left out.
Test system: M. tuberculosis H37Rv growth inhibition, 7H9 media
Test: M. tuberculosis growth inhibition, HTS (AID 449762);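 further: bacterial growth assessed after seven days of incubation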
Details: for IC90: measured here: IC90 growth inhibition

SMILES	IC50 [µM]	IC90 [µM]
CN(C)c1nc(NCc2ccccc2)nc(N/N=C/c2ccc3c(c2)OCO3)n1	42.7	> 100
CC(=O)c1c(C)n(C)c2ccc(OC(=O)c3ccc([N+](=O)[O-])cc3)cc12	11.2	> 100
COC(=O)[C@@H](NC(=O)c1cc(COc2cncc(Cl)c2)on1)c1ccccc1	1.19	3.97
COc1ccc(/C=C2\CCC/C(=C\C=N\N(C)C)C2=O)cc1	8.19	16.2
O=C(Oc1ccc2ccccc2c1)c1cncc(Br)c1	13	60.3
CCN1CCN(c2oc(COc3ccc(-c4ccccc4)cc3)nc2C#N)CC1	43.4	48.4
CCOC(=O)N1CCC(N2Cc3cccc(C(=O)Nc4ccc(N(CC)CC)cc4C)c3C2=O)CC1	45.1	50.5
OC(CN1CCCCC1)Cn1c2ccc(Cl)cc2c2cc(Cl)ccc21 (stereo not drawn)	8.94	11.6
COc1ccc(N/N=C(/N=Nc2nc(C)cc(=O)[nH]2)c2ccccc2)cc1	5.91	6.69
CN(C)S(=O)(=O)c1cccc(NC(=O)CSc2cccc3cccnc23)c1	58.6	65.1
Cc1ccc(N2CCN(C(=O)c3cn(CC4CCCCC4)nn3)C(C)C2)cc1 (stereo not drawn)	4.1	12.4
CC(C)(C)c1ccc(OCCCC(=O)NC2=NCCS2)cc1	23	60.6
COc1ccc(CNC(=O)c2c(N)n(CCCN3CCOCC3)c3nc4ccccc4nc23)cc1	94	> 100
CC(C)(C)C1CCc2c(sc3nc(SCC(N)=O)nc(N)c23)C1 (stereo not drawn)	15.4	31.8
CCN1CSC(=S)N(Cc2ccccc2)C1	10.5	24.1
CCOC(=O)CN[C@H]1CCC2C3CC=C4C[C@@H](O)CC[C@]4(C)C3CC[C@@]21C (stereo partly drawn)	1.41	8.37
COc1cccc2sc(Nc3nnc(-c4cccs4)o3)nc12	23.9	27.1
O=C(O)/C=C/C(=O)Nc1ccc(-c2ccccc2)cc1	34.3	> 100
O=C(NC1CCCCC1)C(c1cccs1)N(CCCN1CCOCC1)C(=O)c1ccc(-c2ccccc2)[nH]1 (stereo not drawn)	40.2	55.5
COc1ccc(-c2ccc(-c3noc(C(C)C)n3)c(OC)n2)cc1	10.7	26.7
Cc1ccccc1NC1=C/C(=N\S(=O)(=O)c2cccs2)c2ccccc2C1=O	7.97	11.8
CCN(CC)c1ccc(N)cc1	7.15	9.95

SMILES	IC50 [µM]	IC90 [µM]
COC(=O)CSc1nnc(CNc2ccc(Cl)cc2)n1-c1ccccc1	12.7	37.4
O=c1oc2ccccc2c(Nc2ccccc2O)c1[N+](=O)[O-]	7.1	14
Cc1cc(C(=O)COC(=O)C2=COCCO2)c(C)n1-c1cccc(F)c1	4.83	> 100
COc1ccc(C2CC(=O)c3cnc(Nc4cc(C)cc(C)c4)nc3C2)cc1 (stereo not drawn)	12.3	22.4
Cc1cc(-c2n[nH]c(=S)n2/N=C/C(Br)=C/c2ccccc2)n[nH]1	2.08	5.63
CCOC(=O)C1CCN(c2nc3cc(OC)ccc3cc2C#N)CC1	52.7	> 100
CCOC(=O)c1cc(C)nc(Sc2ccc(C)cc2)c1C#N	4.4	11.3
Cc1cc(C)c(C(N)=O)c(SCC(=O)c2ccc(Cl)cc2)n1	35.3	63.1
O=C(CSc1nnnn1-c1ccc2c(c1)OCCO2)OC1CCCCC1	11.9	21.7
CCOC(=O)c1ccccc1NC(=O)COc1coc(CN2CCc3ccccc32)cc1=O	17.9	38.2
O=C(CSc1ncnc2nc[nH]c12)c1ccc(Cl)cc1	12.1	13.9
CCOc1ccc(C2c3[nH]c4ccccc4c3C[C@H]3C(=O)N(C4CCN(Cc5ccccc5)CC4)CC(=O)N23)cc1OC (stereo partly drawn)	21.5	29.7
COc1ccc(OCCCC(=O)OC(C)C(=O)Nc2ccccc2[N+](=O)[O-])cc1 (stereo not drawn)	15.4	> 100
Cc1cc(C)nc(Sc2ncnc(N)c2[N+](=O)[O-])n1	7.98	20.7
CCCCOc1ccc(C(=O)Oc2ccc(C)nc2)cc1	13.8	72.3
CCOC(=O)C(C)Sc1ncnc2c1nnn2-c1ccc(F)cc1 (stereo not drawn)	1.19	7.38
N/C(=N\OC(=O)Nc1ccc(Cl)c(Cl)c1)c1ncc(C(F)(F)F)cc1Cl	41.9	45.8
O=c1c(Cl)nc2cc(Cl)ccc2n1CCNc1ncc(C(F)(F)F)cc1Cl	1.3	3.89
Cc1cc2[nH]c3c(c[n+](C)c4ccccc34)c2cc1C	8.57	13.1
O=C(CCl)Nc1sccc1C(=O)c1ccccc1	< 0.2	1.22
COc1ccc2nc(NC(=O)C3CCCN(S(=O)(=O)c4cccs4)C3)sc2c1 (stereo not drawn)	18	27.6
CCOC(=O)c1ccc(N=Cc2c(O)c3ccccc3oc2=O)cc1	66	> 100

From PubChem BioAssay AID449762 (Southern Research Specialized Biocontainment Screening …, 2010)
